This test has as its target T1, ΔF508-CFTR (Homo sapiens, UniProt P13569, DEL508-508).
T1 construct: Primary lung epithelial cells homozygous for the Cystic Fibrosis-causing ΔF508 mutation were differentiated for a minimum of 4 weeks; endogenous in cells; host or cells: primary lung (bronchial) epithelial cells (hBE) homozygous for ΔF508, differentiated at an air-liquid interface
In words: hBE equivalent current (Ieq) assay. The test is classed as cell-based. The settings on record: primary lung epithelial cells homozygous for ΔF508, 24 h treatment; for Ieq Activity: compound at its EC50 and VX-809 at 3 uM; for EC50: AUC of equivalent chloride current after forskolin plus VX-770. The procedure: Primary lung epithelial cells homozygous for the Cystic Fibrosis-causing ΔF508 mutation were differentiated for a minimum of 4 weeks in an air-liquid interface on Costar 24 well HTS filter plates prior to the equivalent current (Ieq) measurements. Cells were apically mucus-washed for 30 minutes 24 h prior to treatment with compounds. The basolateral media was removed and replaced with media containing the compound of interest diluted to its final concentration from DMSO stocks. Treated cells were incubated at 37° C. and 5% CO2 for 24 hours. At the end of the treatment period, the media was changed to the Ieq experimental solution for 30 minutes before the experiment and plates are maintained in a CO2-free incubator during this period. The plates containing the cells were then placed in pre-warmed heating blocks at 36° C.±0.5 for 15 minutes before measurements are taken. The transepithelial voltage (VT) and conductance (GT) were measured using a custom 24 channel current clamp (TECC-24) with 24 well electrode manifold. The Ieq assay measurements were made following additions with standardized time periods: • 1. The baseline VT and GT values were measured for approximately 20 minutes. • 2. Benzamil was added to block ENaC for 15 minutes. • 3. Forskolin plus VX-770 were added to maximally activate ΔF508-CFTR for 27 minutes. • 4. Bumetanide was added to inhibit the NaK2Cl cotransporter and shut-off secretion of chloride.
The activity data captured was the area under the curve (AUC) for the traces of the equivalent chloride current. The AUC was collected from the time of the forskolin/VX-770 addition until the inhibition by bumetanide addition. Correction in response to compound treatment was scored as the increase in the AUC for compound-treated samples over that of vehicle-treated samples.
(** indicates activity ≥200% of VX-809 (3 uM) with compound at its EC50 and VX-809 at 3 uM; * indicates activity 100-200% of VX-809 (3 uM) with compound at its EC50 and VX-809 at 3 uM. ##indicates activity <100% of VX-809 (3 uM) with compound at its EC50 and VX-809 at 3 uM. In Table 2, an Ieq EC50 value of “A” indicates the compound's EC50 is ≤1 μM; an Ieq EC50 value of “B” indicates the compound's EC50 is between 1 and 10 μM; an Ieq EC50 value of “C” indicates the compound's EC50 is ≥10 μM.

T1 sequence (P13569 with tags, fused parts or gaps DEL508-508): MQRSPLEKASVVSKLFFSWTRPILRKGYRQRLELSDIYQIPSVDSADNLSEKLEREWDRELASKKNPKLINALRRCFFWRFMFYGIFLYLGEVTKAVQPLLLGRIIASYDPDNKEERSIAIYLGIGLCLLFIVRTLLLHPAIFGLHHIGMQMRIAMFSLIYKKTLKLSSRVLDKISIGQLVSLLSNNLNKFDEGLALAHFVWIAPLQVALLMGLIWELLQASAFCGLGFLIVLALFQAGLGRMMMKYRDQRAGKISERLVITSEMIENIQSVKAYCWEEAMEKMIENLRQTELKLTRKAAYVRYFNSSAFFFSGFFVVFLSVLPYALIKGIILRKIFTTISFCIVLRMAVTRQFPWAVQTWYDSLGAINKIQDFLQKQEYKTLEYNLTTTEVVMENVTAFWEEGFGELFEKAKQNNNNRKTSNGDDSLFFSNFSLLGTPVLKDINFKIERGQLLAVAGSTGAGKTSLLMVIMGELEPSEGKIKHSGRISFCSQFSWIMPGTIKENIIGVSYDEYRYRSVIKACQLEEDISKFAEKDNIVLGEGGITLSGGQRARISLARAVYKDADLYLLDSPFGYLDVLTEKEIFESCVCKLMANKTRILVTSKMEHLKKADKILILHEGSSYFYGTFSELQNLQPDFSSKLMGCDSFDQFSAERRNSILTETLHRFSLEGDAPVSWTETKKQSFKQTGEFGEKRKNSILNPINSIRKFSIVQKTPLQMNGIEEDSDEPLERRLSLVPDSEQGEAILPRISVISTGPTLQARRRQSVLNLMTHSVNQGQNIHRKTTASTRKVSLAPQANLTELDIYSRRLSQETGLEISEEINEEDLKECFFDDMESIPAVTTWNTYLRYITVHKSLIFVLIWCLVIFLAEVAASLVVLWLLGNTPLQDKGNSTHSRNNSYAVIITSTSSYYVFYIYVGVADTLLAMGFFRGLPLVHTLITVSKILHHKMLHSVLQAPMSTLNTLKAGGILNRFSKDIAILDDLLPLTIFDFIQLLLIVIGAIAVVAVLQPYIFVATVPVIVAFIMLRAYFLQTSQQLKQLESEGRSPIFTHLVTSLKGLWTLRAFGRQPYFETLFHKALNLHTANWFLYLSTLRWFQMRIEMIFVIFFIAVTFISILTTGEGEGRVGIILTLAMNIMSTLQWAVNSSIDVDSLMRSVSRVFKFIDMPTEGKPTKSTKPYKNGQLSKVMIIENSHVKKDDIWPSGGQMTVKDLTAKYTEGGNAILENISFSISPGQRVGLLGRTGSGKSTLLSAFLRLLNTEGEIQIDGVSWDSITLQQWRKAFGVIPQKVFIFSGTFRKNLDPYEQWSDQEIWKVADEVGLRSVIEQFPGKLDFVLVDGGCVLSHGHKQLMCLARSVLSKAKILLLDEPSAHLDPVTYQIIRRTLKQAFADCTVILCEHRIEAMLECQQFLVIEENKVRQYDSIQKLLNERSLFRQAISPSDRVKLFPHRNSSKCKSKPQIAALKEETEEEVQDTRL

Broadly, the EC50 is the concentration giving half of the maximal effect. In the case of `O=C(NCCCC(=O)N1CCC1)c1cc(-c2ccc(F)cc2)on1` [Example 1, N-(4-(Azetidin-1-yl)-4-oxobutyl)-5-(4-fluorophenyl)isoxazole-3-carboxamide], the “Ieq Activity” value was “** (** indicates activity ≥200% of VX-809 (3 uM) with compound at its EC50 and VX-809 at 3 uM)”; the EC50 is no more than 1000 nM.

Turning to `O=C(N[C@H]1C[C@H](C(=O)N2CCC2)C1)c1cc(-c2ccccc2)on1` [Example 2, N-((1r,3r)-3-(Azetidine-1-carbonyl)cyclobutyl)-5-phenylisoxazole-3-carboxamide], the “Ieq Activity” value is “** (** indicates activity ≥200% of VX-809 (3 uM) with compound at its EC50 and VX-809 at 3 uM)”; the EC50 is no more than 1000 nM.

For the compound `O=C(NCCCC(=O)N1CCC1)c1cc(-c2ccccc2)no1` [Example 3, N-(4-(Azetidin-1-yl)-4-oxobutyl)-3-phenylisoxazole-5-carboxamide], the “Ieq Activity” value was “* (* indicates activity 100-200% of VX-809 (3 uM) with compound at its EC50 and VX-809 at 3 uM)”; the EC50 lay within 1000 to 10000 nM.

For the compound `O=C(N[C@H]1C[C@H](C(=O)N2CCC2)C1)c1cc(-c2ccccc2)no1` [Example 4, N-((1r,3r)-3-(Azetidine-1-carbonyl)cyclobutyl)-3-phenylisoxazole-5-carboxamide], the “Ieq Activity” value is “** (** indicates activity ≥200% of VX-809 (3 uM) with compound at its EC50 and VX-809 at 3 uM)”; the EC50 lay in the range of 1000 to 10000 nM.

Take `O=C(N[C@H]1C[C@H](C(=O)N2CCC2)C1)c1cc(-c2ccc(F)cc2)on1` [Example 6]: the “Ieq Activity” value was “* (* indicates activity 100-200% of VX-809 (3 uM) with compound at its EC50 and VX-809 at 3 uM)”; the concentration for a half-maximal effect (EC50) is no more than 1000 nM.

For the compound `O=C(NCCCCC(=O)N1CCC1)c1cc(-c2ccccc2)on1` [Example 8], the “Ieq Activity” value was “## (##indicates activity <100% of VX-809 (3 uM) with compound at its EC50 and VX-809 at 3 uM)”; the EC50 is no more than 1000 nM.

For `CN1CCN(C(=O)CCCNC(=O)c2cc(-c3ccc(F)cc3)on2)CC1` [Example 10], the “Ieq Activity” value is “## (##indicates activity <100% of VX-809 (3 uM) with compound at its EC50 and VX-809 at 3 uM)”; the 50% effective concentration (EC50) is no more than 1000 nM.

For the compound `CN1CCN(C(=O)CCCCNC(=O)c2cc(-c3ccccc3)on2)CC1` [Example 11], the “Ieq Activity” value was “## (##indicates activity <100% of VX-809 (3 uM) with compound at its EC50 and VX-809 at 3 uM)”; the EC50 is no more than 1000 nM.

Take `O=C(NCCC(=O)N1CCC1)c1cc(-c2ccccc2)on1` [Example 12]: the “Ieq Activity” value is “* (* indicates activity 100-200% of VX-809 (3 uM) with compound at its EC50 and VX-809 at 3 uM)”; the EC50 was no more than 1000 nM.
